Molecules are shown by their SMILES.

The assay concerns T1, EAH (EAH 1 and EAH 2), ellagitannin-acyl hydrolase identified as alpha-L-arabinofuranosidase.
T1 construct: gene abfB; native secreted protein from solid-state fermentation, co-purified mixture; 499 residues each; domains ArabFuran-catal (20-334 / 20-333) and AbfB (352-493)
Briefly: Lineweaver-Burk. In kind it is biochemical, Aspergillus niger. The conditions noted are these: mixture of two co-purified isoforms; temperature and pH of kinetics not stated. The text has this: Lineweaver-Burk on EAH (EAH 1 and EAH 2), ellagitannin-acyl hydrolase identified as alpha-L-arabinofuranosidase

As for `COC(=O)c1cc(O)c(O)c(O)c1` [methyl gallate], the Km was 6.66 mM.

Values taken from article PMC9956360, “Production of a Fungal Punicalagin-Degrading Enzyme by Solid-State Fermentation: Studies of Purification and Characterization” (Foods, 2023).
